From PubChem BioAssay AID2060506 (Molecular Pharmacology Branch, DTP, NCI, 2025)
Each block holds one compound with its values, some of them ahead of it.

System: 598228-144-R-J1-PDC complex spheroid viability
Assay: Anticancer human tumor 598228-144-R-J1-PDC patient-derived serous endometrial adenocarcinoma cell line growth inhibition [GQUAD]
Conditions: for IC50: curve of first compound; for viability, T/C: stronger effect = lower value
Outline: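 Multi-cell-type spheroids of tumor cells with HUVEC and mesenchymal stem cells, treated with drug combinations. Concentrations descend in half-log steps from near clinical Cmax, or from 10 microM where Cmax is unknown; viability read-out.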

[1] = second compound 0.0316 µM, first compound 0.0316 µM
[2] = second compound 0.0316 µM, first compound 0.1 µM
[3] = second compound 0.0316 µM, first compound 0.316 µM
[4] = second compound 0.0316 µM, first compound 1 µM
[5] = second compound 0.0316 µM, first compound 3.16 µM
[6] = second compound 0.0316 µM, first compound 10 µM
[7] = second compound 0.1 µM, first compound 0.0316 µM
[8] = second compound 0.1 µM, first compound 0.1 µM
[9] = second compound 0.1 µM, first compound 0.316 µM
[10] = second compound 0.1 µM, first compound 1 µM
[11] = second compound 0.1 µM, first compound 3.16 µM
[12] = second compound 0.1 µM, first compound 10 µM
[13] = second compound 0.316 µM, first compound 0.0316 µM
[14] = second compound 0.316 µM, first compound 0.1 µM
[15] = second compound 0.316 µM, first compound 0.316 µM
[16] = second compound 0.316 µM, first compound 1 µM
[17] = second compound 0.316 µM, first compound 3.16 µM
[18] = second compound 0.316 µM, first compound 10 µM
[19] = second compound 1 µM, first compound 0.0316 µM
[20] = second compound 1 µM, first compound 0.1 µM
[21] = second compound 1 µM, first compound 0.316 µM
[22] = second compound 1 µM, first compound 1 µM
[23] = second compound 1 µM, first compound 3.16 µM
[24] = second compound 1 µM, first compound 10 µM
[25] = second compound 3.16 µM, first compound 0.0316 µM
[26] = second compound 3.16 µM, first compound 0.1 µM
[27] = second compound 3.16 µM, first compound 0.316 µM
[28] = second compound 3.16 µM, first compound 1 µM
[29] = second compound 3.16 µM, first compound 3.16 µM
[30] = second compound 3.16 µM, first compound 10 µM
[31] = second compound 10 µM, first compound 0.0316 µM
[32] = second compound 10 µM, first compound 0.1 µM
[33] = second compound 10 µM, first compound 0.316 µM
[34] = second compound 10 µM, first compound 1 µM
[35] = second compound 10 µM, first compound 3.16 µM
[36] = second compound 10 µM, first compound 10 µM
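Note: spheroids exposed to the agents for one week before reading.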
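Throughout, for viability, T/C: percent of vehicle DMSO control viability so 100% = untreated growth.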

IC50 (second compound 0.0316 µM): > 10 µM
IC50 (second compound 0.1 µM): > 10 µM
IC50 (second compound 0.316 µM): > 10 µM
IC50 (second compound 1 µM): > 10 µM
IC50 (second compound 3.16 µM): > 10 µM
IC50 (second compound 10 µM): < 0.0316 µM
Structure (SMILES): Cc1cccc(N(C)C(=O)C2C(O)CCN2c2nc(C)cc(C(F)(F)F)c2C#N)c1 (stereo not drawn) + Cc1cnc(CNC(=O)c2c(=O)c3ccc(N4CCCN(C)CC4)nc3n3c2sc2ccccc23)cn1
viability, T/C [1]: 92.7%
viability, T/C [2]: 83.7%
viability, T/C [3]: 91%
viability, T/C [4]: 99%
viability, T/C [5]: 112%
viability, T/C [6]: 91.4%
viability, T/C [7]: 76.8%
viability, T/C [8]: 69.3%
viability, T/C [9]: 64.4%
viability, T/C [10]: 67.9%
viability, T/C [11]: 86.6%
viability, T/C [12]: 66.5%
viability, T/C [13]: 63.2%
viability, T/C [14]: 66.6%
viability, T/C [15]: 70.3%
viability, T/C [16]: 63.6%
viability, T/C [17]: 61.3%
viability, T/C [18]: 60.2%
viability, T/C [19]: 68.9%
viability, T/C [20]: 62.5%
viability, T/C [21]: 58.7%
viability, T/C [22]: 61.9%
viability, T/C [23]: 58.3%
viability, T/C [24]: 60.5%
viability, T/C [25]: 52.4%
viability, T/C [26]: 58.3%
viability, T/C [27]: 57.9%
viability, T/C [28]: 44.3%
viability, T/C [29]: 58.7%
viability, T/C [30]: 50.5%
viability, T/C [31]: 55.8%
viability, T/C [32]: 45.7%
viability, T/C [33]: 37.8%
viability, T/C [34]: 46%
viability, T/C [35]: 66.1%
viability, T/C [36]: 36.2%

IC50 (second compound 0.0316 µM): 0.0712 µM
IC50 (second compound 0.1 µM): 0.0526 µM
IC50 (second compound 0.316 µM): 0.0684 µM
IC50 (second compound 1 µM): < 0.0316 µM
IC50 (second compound 3.16 µM): < 0.0316 µM
IC50 (second compound 10 µM): < 0.0316 µM
Structure (SMILES): Nc1ccn(C2OC(CO)C(O)C2(F)F)c(=O)n1 (stereo not drawn) + Cc1cnc(CNC(=O)c2c(=O)c3ccc(N4CCCN(C)CC4)nc3n3c2sc2ccccc23)cn1
viability, T/C [1]: 65.9%
viability, T/C [2]: 42.8%
viability, T/C [3]: 41.7%
viability, T/C [4]: 42.5%
viability, T/C [5]: 43.6%
viability, T/C [6]: 44.6%
viability, T/C [7]: 58.7%
viability, T/C [8]: 38.4%
viability, T/C [9]: 45.7%
viability, T/C [10]: 46.6%
viability, T/C [11]: 40%
viability, T/C [12]: 39%
viability, T/C [13]: 63.5%
viability, T/C [14]: 43.8%
viability, T/C [15]: 38.2%
viability, T/C [16]: 44.9%
viability, T/C [17]: 44.8%
viability, T/C [18]: 39.1%
viability, T/C [19]: 58.3%
viability, T/C [20]: 41.6%
viability, T/C [21]: 47.5%
viability, T/C [22]: 39.7%
viability, T/C [23]: 54.7%
viability, T/C [24]: 46.8%
viability, T/C [25]: 60.2%
viability, T/C [26]: 43.2%
viability, T/C [27]: 36.4%
viability, T/C [28]: 26.4%
viability, T/C [29]: 50.5%
viability, T/C [30]: 37%
viability, T/C [31]: 48.5%
viability, T/C [32]: 27.7%
viability, T/C [33]: 23.3%
viability, T/C [34]: 30.2%
viability, T/C [35]: 38.8%
viability, T/C [36]: 18.6%

Structure (SMILES): C=CC(=O)N1CCN(c2nc(=O)n(-c3c(C)ccnc3C(C)C)c3nc(-c4c(O)cccc4F)c(F)cc23)C(C)C1 (stereo not drawn) + Cc1[nH]c2ccc(F)cc2c1-c1nc2c3cccnc3c3ncccc3c2[nH]1
IC50 (second compound 0.0316 µM): > 10 µM
IC50 (second compound 0.1 µM): > 10 µM
IC50 (second compound 0.316 µM): > 10 µM
IC50 (second compound 1 µM): > 10 µM
IC50 (second compound 3.16 µM): < 0.0316 µM
IC50 (second compound 10 µM): > 10 µM
viability, T/C [1]: 119%
viability, T/C [2]: 95%
viability, T/C [3]: 105%
viability, T/C [4]: 132%
viability, T/C [5]: 136%
viability, T/C [6]: 123%
viability, T/C [7]: 88.4%
viability, T/C [8]: 110%
viability, T/C [9]: 102%
viability, T/C [10]: 129%
viability, T/C [11]: 136%
viability, T/C [12]: 151%
viability, T/C [13]: 75.9%
viability, T/C [14]: 94.8%
viability, T/C [15]: 99.5%
viability, T/C [16]: 108%
viability, T/C [17]: 159%
viability, T/C [18]: 108%
viability, T/C [19]: 58.6%
viability, T/C [20]: 62.9%
viability, T/C [21]: 63.7%
viability, T/C [22]: 75.6%
viability, T/C [23]: 89.3%
viability, T/C [24]: 101%
viability, T/C [25]: 36.1%
viability, T/C [26]: 37.2%
viability, T/C [27]: 55.9%
viability, T/C [28]: 57.7%
viability, T/C [29]: 59.5%
viability, T/C [30]: 70%
viability, T/C [31]: 57.1%
viability, T/C [32]: 75.6%
viability, T/C [33]: 63.8%
viability, T/C [34]: 69.1%
viability, T/C [35]: 80.9%
viability, T/C [36]: 103%

Structure (SMILES): CC(C)n1c(=O)n(C)c2cnc3cc(F)c(-c4ccc(OCCCN5CCCCC5)nc4)cc3c21 + CN(C)c1ccc(Nc2c3ccc(NC(=O)CCN4CCCC4)cc3nc3cc(NC(=O)CCN4CCCC4)ccc23)cc1
IC50 (second compound 0.0316 µM): 9.92 µM
IC50 (second compound 0.1 µM): > 10 µM
IC50 (second compound 0.316 µM): > 10 µM
IC50 (second compound 1 µM): 8.29 µM
IC50 (second compound 3.16 µM): 6.87 µM
IC50 (second compound 10 µM): 0.217 µM
viability, T/C [1]: 112%
viability, T/C [2]: 79.6%
viability, T/C [3]: 102%
viability, T/C [4]: 93%
viability, T/C [5]: 78.1%
viability, T/C [6]: 49.7%
viability, T/C [7]: 117%
viability, T/C [8]: 82.9%
viability, T/C [9]: 94%
viability, T/C [10]: 92.2%
viability, T/C [11]: 86.8%
viability, T/C [12]: 57.2%
viability, T/C [13]: 110%
viability, T/C [14]: 102%
viability, T/C [15]: 98.9%
viability, T/C [16]: 89.3%
viability, T/C [17]: 89.5%
viability, T/C [18]: 60%
viability, T/C [19]: 75.7%
viability, T/C [20]: 87.4%
viability, T/C [21]: 99.2%
viability, T/C [22]: 87.7%
viability, T/C [23]: 83.1%
viability, T/C [24]: 43.5%
viability, T/C [25]: 98.2%
viability, T/C [26]: 78.3%
viability, T/C [27]: 103%
viability, T/C [28]: 80.2%
viability, T/C [29]: 83.3%
viability, T/C [30]: 34.7%
viability, T/C [31]: 70.8%
viability, T/C [32]: 60.3%
viability, T/C [33]: 44.7%
viability, T/C [34]: 29.6%
viability, T/C [35]: 15.8%
viability, T/C [36]: 5.05%
